From patent publication US20220046919A1, “SYNERGISTIC INSECTICIDAL COMBINATIONS” (UPL LTD, priority 2019, published 2022)
“Also recorded” adds a separate entry of the source.

Assays:
[1] = test system: Amrasca bigutula bigutula; assay: Field trial: control of Jassids in infected Okra; assay type: in vivo; settings: Denatonium Benzoate alone
Experimental: (§1) Field trials were conducted to study the effect of the combination of Denatonium benzoate with insecticides. The following three combinations were tested on the control of Jassids species Amrasca bigutula bigutula in the crop of infected Okra (Abelmoschus esculentum L) over the use of insecticides alone. • Denatonium benzoate+Flonicamid • Denatonium benzoate+Thiamethoxam • Denatonium benzoate+Imidacloprid
(§2) Both phytotoxicity and percentage control of the Jassids was measured.
T-1, T-2 and T-3 are the treatment with insecticidal combinations according to the present invention; T-4, T-5 and T-6 are the treatment with insecticides alone; T-7 and T-8 are the treatment with Denatonium benzoate (DB) liquid solutions alone and T-9 is the control.
Bio-efficacy of insecticidal combinations of the present invention against Jassids in infected Okra were evaluated. The percentage control of Jassids was measured. Efficacy was evaluated as: Excellent 91-100%, Very good 81-90%, Good 71-80%, Moderate 51-70%, Poor<50%.

[2] = test system: Okra (Abelmoschus esculentum L); assay: Phytotoxicity / crop safety on Okra in the field trial; assay type: in vivo; settings: both application rates, 4 ml & 5 ml/lit of water
Experimental: as §1, §2
The safety of Denatonium Benzoate (DB) combinations according to present invention on Okra was evaluated. It is observed that the DB combinations according to the present invention are safe and no Phytotoxicity is observed.

[3] = cited from earlier work
[4] = in vivo; cited from earlier work

Q: Which results are given for `CC[N+](CC)(CC(=O)Nc1c(C)cccc1C)Cc1ccccc1.O=C([O-])c1ccccc1` [Denatonium benzoate, phenylmethyl-[2-[(2,6-dimethylphenyl)amino]-2-oxoethyl]-diethylammonium benzoate]?
A: control of Jassids / insecticidal activity, in words [1]: no significant control of Jassids; also recorded: does not exhibit any insecticidal activity; Selectivity: crop safety on okra [2]: Good crop safety; concentration with generally recognized bitter taste ([3]; in vivo): 50 ppb; concentration detected by the average person ([3]; taste detection): 10 ppb; human safety in clinical trials [4]: extremely human safe
